The record followed here is patent publication US10883994B2, “Identification of cancer stem cells markers and use of same for diagnosis and treatment” (Tel HaShomer Medical Research Infrastructure and Services …, priority 2014, dated 2021).

Entries after “also recorded” stand apart in the source; their conditions may differ.

In data set [1] the test system is ATRT Xn cells (MRT cells). The experiment in a line: MTS cell viability assay on MRT/ATRT Xn cells. In kind it is cell-based, human. The note with it: 100 μM BAPN, 48 h. As for the experimental part:
(§1) MTS—cell viability assay: 5×10^3 cells were plated in triplicates and grown in 96-well plates over-night. The following day the medium was changed and supplemented with various concentrations of BAPN and the cells were further incubated for 48 h. Cell proliferation was measured using CellTiter 96 Aqueous One Solution Cell Proliferation Assay (Promega) according to the manufacturer's instructions. Briefly, the cells were incubated with the MTS solution for 3 hours at 37° C. and absorbance at 492 nm was determined using a microplate reader. Three independent experiments were carried out.
Background: Tetrazolium assays rely on reduction of a dye to a coloured formazan, in cell work by metabolically active cells.

The test system of data set [2] is Wilms' tumor (WT) Xn cells. The experiment in a line: MTS cell viability assay on Wilms' tumor Xn cells. The following applies: Wilms' tumor Xn cells serially propagated in mice. In kind it is cell-based, human. As for the experimental part:
as §1

In data set [3] the test system is MRT cells (ATRT cells). Put plainly: Morphology of MRT/ATRT cells after BAPN treatment. The class given is cell-based, human.
The test system of data set [4] is MRT cells (ATRT cells). The experiment in a line: Cell migration assay (scrape). The note with it: 100 μM BAPN, 48 h. The class given is cell-based, human. The method, then:
Cell migration assay: Cells were grown overnight, after which the medium was changed and supplemented with 100 μM BAPN. After 48 hours, a scrape was made through the confluent monolayers with a plastic 1 ml pipette tip. Treated and control cells were then photographed at identical time points (24 and 48 hours).

For data set [5], the target named is T1, LOX (lysyl oxidase) in ATRT cells (Homo sapiens, UniProt P28300).
T1 construct: endogenous in cells
T1 sequence (P28300 169-417): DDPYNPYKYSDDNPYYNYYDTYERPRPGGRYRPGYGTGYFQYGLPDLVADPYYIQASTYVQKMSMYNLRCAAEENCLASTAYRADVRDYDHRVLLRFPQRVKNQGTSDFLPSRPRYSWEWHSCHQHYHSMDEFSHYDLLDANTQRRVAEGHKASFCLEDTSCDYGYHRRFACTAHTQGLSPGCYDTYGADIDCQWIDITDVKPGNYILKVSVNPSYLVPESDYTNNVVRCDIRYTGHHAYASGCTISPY
Put plainly: LOX activity assay (Amplex Red fluorescence). The class given is biochemical. The note with it: 100 μM BAPN. As for the experimental part:
LOX Activity Assays: The LOX enzyme activity was measured using the Amplex Red fluorescence assay (AAA Bioquest, 15255), as previously described (15843371). The assay reaction mixture consisted of 50 mM sodium borate (pH 8.2), 1.2 M urea, 50 µM Amplex Red, 0.1 units/ml horseradish peroxidase, and 10 mM 1,5-diaminopentane (cadaverine) substrate. The protein samples were added to the reaction mix, in the presence or absence of 100 μM BAPN, which was then incubated at 37° C. for 30 minutes. The fluorescent product was measured at 590 nm using an […] microplate reader.

The mark [6] stands for this setting: intermediate Xn passage (P10) MRT cells.

Take `N#CCCN` [BAPN, β-Aminopropionitrile]: in data set [1] (P2 Xn cells), the “proliferation in comparison to UT cells (MTS cell viability)” value amounted to 47%. For the same compound, the “proliferation (MTS cell viability)” value in data set [1] (intermediate Xn passage (P10) cells, three different experiments) is recorded as “significantly reduced proliferation”. For the same compound, in data set [2], the “effect on WT cell proliferation” value is on record as “no effect on WT cell proliferation”. Also, the “morphological changes on ATRT cells” value in the data set with MRT cells (ATRT cells) [3] (P2 cells) was “nuclear condensation and cell swallowing”. For the same compound, in the data set on MRT cells (ATRT cells) [3] (setting [6]), the “morphological changes on MRT cells” value was “nuclear condensation and cell swallowing”. Besides, the “ATRT cell migration capacity compared to un-treated cells” value in the data set with MRT cells (ATRT cells) [4] (P2 cells) is “significant inhibited”. Moreover, the “MRT cell migration capacity compared to un-treated cells” value in the data set with MRT cells (ATRT cells) [4] (setting [6]) is recorded as “significant inhibited; also recorded: significantly inhibited”. Besides, the “LOX activity (in words)” value in data set [5] is reported as “significantly inhibited LOX activity”. Also, the figures for the “inhibition of LOX activity” value in data set [5] (P3 cells) and in data set [5] (P10 cells) were 81% and 63%, respectively.
